Source: ChEMBL document CHEMBL1926640, “Structure-based rational design of novel hit compounds for pyruvate dehydrogenase multienzyme complex E1 components from Escherichia coli” (Bioorg Med Chem, 2011)

experiment: Inhibition of Escherichia coli PDHc-E1 expressed in Escherichia coli TB1 using sodium pyruvate as substrate after 3 mins by 2,6-DCIP reduction assay

**Q.** For Cc1ncc(Cn2cc(COc3ccc([N+](=O)[O-])cc3Cl)nn2)c(N)n1, which IC50 is on record?
**A.** 6.88 µM

**Q.** For Cc1ncc(Cn2cc(COc3ccc([N+](=O)[O-])cc3)nn2)c(N)n1, which IC50 is on record?
**A.** 8.8 µM

**Q.** For Cc1ncc(Cn2cc(COc3ccc(C(=O)O)cc3)nn2)c(N)n1, which IC50 is on record?
**A.** 15.1 µM

**Q.** Which IC50 does the source give for Cc1ncc(Cn2cc(COc3ccccc3)nn2)c(N)n1 here?
**A.** 55.1 µM
